Laboratory results from patent US4518529A, “Antibiotics C-19393S2” (Takeda Chemical Industries, Ltd., priority 1979, dated 1985).
≈ marks a conversion by molar mass, not a printed value. Entries after “also recorded” stand apart in the source; their conditions may differ. Where a name gives a salt, the structure may show the parent alone. Read-outs that look alike come from different tables or passages of the source. Each block holds one compound with its values, some of them ahead of it.

What was measured:
Stability = assay type: physicochemical
[1] = system: gram-positive and gram-negative bacteria; experiment: Antimicrobial activity (in words); assay type: cell-based
Solubility = assay type: physicochemical
[2] = system: Klebsiella pneumoniae TN 1725; experiment: Increasing effect on antimicrobial activity of ampicillin and cefotiam by C-19393S2, K. pneumoniae TN 1725; assay type: cell-based; conditions: read-out: Minimum Inhibitory Concentration
Source text: (§1) *Clinically isolated strains having the ability to produce betalactamase
(§2) Medium: Heart Infusion Agar (Eiken Chemical Co., Japan)

Escherichia coli TN 659 = experiment: Increasing effect on antimicrobial activity of ampicillin and cefotiam by C-19393S2, E. coli TN 659; assay type: cell-based; conditions: read-out: Minimum Inhibitory Concentration
Source text: as §1, §2

Proteus vulgaris TN 224 = experiment: Increasing effect on antimicrobial activity of ampicillin and cefotiam by C-19393S2, P. vulgaris TN 224; assay type: cell-based; conditions: read-out: Minimum Inhibitory Concentration
Source text: as §1, §2

[3] = system: various bacteria which exhibit resistance to penicillin derivatives and/or cephalosporin derivatives; experiment: Sensitivity of resistant bacteria to penicillin and/or cephalosporin derivatives; assay type: cell-based; conditions: to penicillin derivatives and/or cephalosporin derivatives (ampicillin, cefotiam)
betalactamase = experiment: Betalactamase inhibiting activity; assay type: biochemical
[4] = Umezawa et al., The Journal of Antibiotics, Vol. 26, pages 51-54, 1973; cited from earlier work
[5] = system: Serratia marcescens IFO 12648; experiment: Antimicrobial spectrum, MIC on bouillon agar, S. marcescens; assay type: cell-based; conditions: IFO12648, read-out: Minimum Inhibitory Concentration
Source text: (§3) The biological properties of C-19393S2 are described below. The antibiotic spectrum of C-19393S2 sodium salt against various microorganisms are shown below in Table 4.

[6] = system: Proteus vulgaris IFO 3045; experiment: Antimicrobial spectrum, MIC on bouillon agar, P. vulgaris; assay type: cell-based; conditions: IFO3045, read-out: Minimum Inhibitory Concentration
Source text: as §3

[7] = system: Alcaligenes faecalis IFO 13111; experiment: Antimicrobial spectrum, MIC on bouillon agar, A. faecalis; assay type: cell-based; conditions: IFO13111, read-out: Minimum Inhibitory Concentration
Source text: as §3

Bacillus cereus IFO 3460 = experiment: Antimicrobial spectrum, MIC on bouillon agar, B. cereus; assay type: cell-based; conditions: IFO3460, read-out: Minimum Inhibitory Concentration
Source text: as §3

[8] = system: Comamonas terrigena IFO 13299; experiment: Antimicrobial spectrum, MIC on bouillon agar, C. terrigena; assay type: cell-based; conditions: IFO13299, read-out: Minimum Inhibitory Concentration
Source text: as §3

Escherichia coli NIHJ = experiment: Antimicrobial spectrum, MIC on bouillon agar, E. coli NIHJ; assay type: cell-based; conditions: read-out: Minimum Inhibitory Concentration
Source text: as §3

[9] = system: Klebsiella pneumoniae IFO 3318; experiment: Antimicrobial spectrum, MIC on bouillon agar, K. pneumoniae; assay type: cell-based; conditions: IFO3318, read-out: Minimum Inhibitory Concentration
Source text: as §3

[10] = system: Salmonella typhimurium IFO 12529; experiment: Antimicrobial spectrum, MIC on bouillon agar, S. typhimurium; assay type: cell-based; conditions: Salmonella enterica, read-out: Minimum Inhibitory Concentration
Source text: as §3

[11] = system: Pseudomonas aeruginosa IFO 3080; experiment: Antimicrobial spectrum, MIC on bouillon agar, P. aeruginosa; assay type: cell-based; conditions: IFO3080, read-out: Minimum Inhibitory Concentration
Source text: as §3

[12] = system: Staphylococcus aureus 209P; experiment: Antimicrobial spectrum, MIC on bouillon agar, S. aureus; assay type: cell-based; conditions: read-out: Minimum Inhibitory Concentration
Source text: as §3

[13] = system: Proteus mirabilis IFO 3845; experiment: Antimicrobial spectrum, MIC on bouillon agar, P. mirabilis; assay type: cell-based; conditions: IFO3845, read-out: Minimum Inhibitory Concentration
Source text: as §3

[14] = system: Bacillus subtilis IFO 3513; experiment: Antimicrobial spectrum, MIC on bouillon agar, B. subtilis; assay type: cell-based; conditions: IFO3513, read-out: Minimum Inhibitory Concentration
Source text: as §3

Sarcina lutea IFO 3232 = experiment: Antimicrobial spectrum, MIC on bouillon agar, S. lutea; assay type: cell-based; conditions: Micrococcus luteus, IFO3232, read-out: Minimum Inhibitory Concentration
Source text: as §3

[15] = aqueous solution in a neutral pH region
[16] = comparison with MM-4550 (MC 696-SY2-A)
[17] = TN1725, Klebsiella pneumoniae TN 1725, C-19393S2 0, Heart Infusion Agar
[18] = TN1725, Klebsiella pneumoniae TN 1725, with C-19393S2 1 μg/ml, Heart Infusion Agar
[19] = TN1725, Klebsiella pneumoniae TN 1725, with C-19393S2 5 μg/ml, Heart Infusion Agar
[20] = TN659, Escherichia coli TN 659, C-19393S2 0, Heart Infusion Agar
[21] = TN659, Escherichia coli TN 659, with C-19393S2 1 μg/ml, Heart Infusion Agar
[22] = TN659, Escherichia coli TN 659, with C-19393S2 5 μg/ml, Heart Infusion Agar
[23] = TN224, Proteus vulgaris TN 224, C-19393S2 0, Heart Infusion Agar
[24] = TN224, Proteus vulgaris TN 224, with C-19393S2 1 μg/ml, Heart Infusion Agar
[25] = TN224, Proteus vulgaris TN 224, with C-19393S2 5 μg/ml, Heart Infusion Agar

SMILES: CC(=O)N/C=C/[S+]([O-])C1=C(C(=O)O)N2C(=O)C(C(C)(C)O)C2C1 (stereo not shown) [Antibiotic C-19393H2]
- Stability (Stability; [15]): stable
- Stability (Stability; [16]): stable
- antimicrobial activity [1]: exhibits antibacterial activity against gram-positive and gram-negative bacteria; also recorded: has antimicrobial activity against gram-positive and gram-negative bacteria
- Solubility (Solubility; water, listed as H2): water-soluble

- MIC [2, 17]: 800 µg/mL (≈ 2290 µM)
- MIC [2, 18]: 50 µg/mL (≈ 143 µM)
- MIC [2, 19]: 0.78 µg/mL (≈ 2.23 µM)
- MIC (Escherichia coli TN 659; [20]): > 800 µg/mL
- MIC (Escherichia coli TN 659; [21]): 3.13 µg/mL (≈ 8.96 µM)
- MIC (Escherichia coli TN 659; [22]): ≤ 0.003 µg/mL
- MIC (Proteus vulgaris TN 224; [23]): 400 µg/mL (≈ 1140 µM)
- MIC (Proteus vulgaris TN 224; [24]): 1.56 µg/mL (≈ 4.46 µM)
- MIC (Proteus vulgaris TN 224; [25]): 1.56 µg/mL (≈ 4.46 µM)
SMILES: CC1(C)S[C@@H]2[C@H](NC(=O)[C@H](N)c3ccccc3)C(=O)N2[C@H]1C(=O)O [Ampicillin]

- MIC [2, 17]: 200 µg/mL (≈ 380 µM)
- MIC [2, 18]: 0.2 µg/mL (≈ 0.38 µM)
- MIC [2, 19]: 0.02 µg/mL (≈ 0.038 µM)
- MIC (Escherichia coli TN 659; [20]): 0.2 µg/mL (≈ 0.38 µM)
- MIC (Escherichia coli TN 659; [21]): 0.1 µg/mL (≈ 0.19 µM)
- MIC (Escherichia coli TN 659; [22]): 0.006 µg/mL (≈ 0.0114 µM)
- MIC (Proteus vulgaris TN 224; [23]): 200 µg/mL (≈ 380 µM)
- MIC (Proteus vulgaris TN 224; [24]): 0.2 µg/mL (≈ 0.38 µM)
- MIC (Proteus vulgaris TN 224; [25]): 0.2 µg/mL (≈ 0.38 µM)
SMILES: CN(C)CCn1nnnc1SCC1=C(C(=O)O)N2C(=O)[C@@H](NC(=O)Cc3csc(N)n3)[C@H]2SC1 [Cefotiam]

SMILES: CC(=O)N/C=C/[S+]([O-])C1=C(C(=O)O)N2C(=O)C(C(C)(C)OS(=O)(=O)O)C2C1 (stereo not shown) [Antibiotic C-19393S2]
- Stability (Stability; [15]): stable
- Stability (Stability; [16]): stable
- increase of sensitivity of resistant bacteria [3]: increases markedly the sensitivity; also recorded: markedly increases the sensitivity
- betalactamase inhibiting activity (betalactamase): strong betalactamase inhibiting activity; also recorded: exhibits a beta-lactamase inhibiting activity
- antimicrobial activity [1]: exhibits an antimicrobial activity against gram-positive and gram-negative bacteria
- antimicrobial activity ([1]; listed as Antibiotic C-19393S2): active against gram-positive and gram-negative bacteria
- Solubility (Solubility; water): water-soluble

SMILES: CC(=O)N/C=C/[S+]([O-])C1=C(C(=O)O)N2C(=O)C(C(C)OS(=O)(=O)O)C2C1 (stereo not shown) [MC 696-SY2-A]
- Stability [4]: very unstable

SMILES: CC(=O)N/C=C/[S+]([O-])C1=C(C(=O)O)N2C(=O)C(C(C)(C)O)C2C1 (stereo not shown) [C-19393H2 sodium salt]
- MIC [5]: 0.31 µg/mL
- MIC [6]: 5 µg/mL
- MIC [7]: 5 µg/mL
- MIC (Bacillus cereus IFO 3460): 10 µg/mL
- MIC [8]: 0.16 µg/mL
- MIC (Escherichia coli NIHJ): 0.08 µg/mL
- MIC [9]: 0.31 µg/mL
- MIC [10]: 0.31 µg/mL
- MIC [11]: 10 µg/mL
- MIC [12]: 0.63 µg/mL
- MIC [13]: 5 µg/mL
- MIC [14]: 0.31 µg/mL
- MIC (Sarcina lutea IFO 3232): 0.31 µg/mL
- Solubility (Solubility; acetone): sparingly soluble
- Solubility (Solubility; butanol): sparingly soluble
- Solubility (Solubility; chloroform): Insoluble
- Solubility (Solubility; ethanol): sparingly soluble
- Solubility (Solubility; ethyl acetate): Insoluble
- Solubility (Solubility; methanol): soluble
- Solubility (Solubility; water): soluble

SMILES: CC(=O)N/C=C/[S+]([O-])C1=C(C(=O)O)N2C(=O)C(C(C)(C)OS(=O)(=O)O)C2C1 (stereo not shown) [C-19393S2 disodium salt]
- MIC [5]: 25 µg/mL
- MIC [6]: 100 µg/mL
- MIC [7]: 50 µg/mL
- MIC (Bacillus cereus IFO 3460): > 100 µg/mL
- MIC [8]: 6.25 µg/mL
- MIC (Escherichia coli NIHJ): 12.5 to 25 µg/mL
- MIC [9]: 12.5 µg/mL
- MIC [10]: 12.5 µg/mL
- MIC [11]: > 100 µg/mL
- MIC [12]: 12.5 µg/mL
- MIC [13]: 50 µg/mL
- MIC [14]: 12.5 µg/mL
- MIC (Sarcina lutea IFO 3232): 12.5 µg/mL
- Solubility (Solubility; acetic acid): soluble
- Solubility (Solubility; acetone): Insoluble
- Solubility (Solubility; butanol): sparingly soluble
- Solubility (Solubility; chloroform): Insoluble
- Solubility (Solubility; dimethyl sulfoxide): soluble
- Solubility (Solubility; ethanol): sparingly soluble
- Solubility (Solubility; ethyl acetate): Insoluble
- Solubility (Solubility; methanol): soluble
- Solubility (Solubility; pyridine): sparingly soluble
- Solubility (Solubility; water): readily soluble
